Measurements from US8158650B2, “Substituted phenylmethyl bicyclocarboxyamide compounds” (Pfizer Inc., priority 2006, dated 2012).

Molecular target: human VR1 (Homo sapiens, UniProt Q8NER1)
Assay: Human VR1 antagonist assay (Ca2+ imaging)
Type: cell-based
Conditions: intracellular Ca2+ imaging (fura-2) in cells expressing human VR1 receptors; stimulus (capsaicin or acid) not given
Excerpt: VR1 antagonistic activity can be determined by the Ca^2+ imaging assay using human VR1 highly expressing cells. The cells that highly express human VR1 receptors are obtainable from several different conventional methods. The one standard method is cloning from human Dorsal Root Ganglion (DRG) or kidney according to the methods such as described in the journal article; Nature, 389, pp 816-824, 1997. Alternatively VR1 receptors highly expressing human keratinocytes are also known and published in the journal article (Biochemical and Biophysical Research Communications, 291, pp 124-129, 2002). […] Furthermore, the method to up regulate human VR1 gene, which is usually a silent gene or don't produce detectable level of VR1 receptors, is also available to obtain propriety cells. Such genetic modification method was described in detail; Nat. Biotechnol., 19, pp 440-445, 2001.
The cells that express human VR1 receptors were maintained in culture flask at 37° C. in an environment containing 5% CO2 until use in the assay. The intracellular Ca^2+ imaging assay to determine VR1 antagonistic activities were done by following procedures.
The culture medium was removed from the flask and fura-2/AM fluorescent calcium indicator was added to the flask at a concentration of 5 μM in the medium. The flask was placed in CO2 incubator and incubated for 1 hour. Then the cells expressing the human VR1 receptors were detached from the flask follow by washing with phosphate buffer saline, PBS(−) and re-suspended in assay buffer. The 80 μl of aliquot of cell suspension (3.75×10^5 cells/ml) was added to the assay plate and the cells were spun down by centrifuge (950 rpm, 20° C., 3 minutes).
The compounds of the examples were tested in the Human VR1 antagonist assay described above.
The capsaicin-induced changes in the intracellular calcium concentration were monitored using FDSS 6000 (Hamamatsu Photonics, Japan), a fluorometric imaging system. The cell suspension in Krebs-Ringer HEPES (KRH) buffer (115 mM NaCl, 5.4 mM KCl, 1 mM MgSO4, 1.8 mM CaCl2, 11 mM D-Glucose, 25 mM HEPES, 0.96 mM Na2HPO4, pH 7.3) were pre-incubated with varying concentrations of the test compounds or KRH buffer (buffer control) for 15 minutes at room temperature under the dark condition. Then capsaicin solution, which gives 300 nM in assay mixture, was automatically added to the assay plate by the FDSS 6000.
The acid-induced changes in the intracellular calcium concentration were monitored using FDSS 6000 (Hamamatsu Photonics, Japan), a fluorometric imaging system. The cell suspension in resting buffer (HBSS supplemented with 10 mM HEPES, pH 7.4) were pre-incubated with varying concentrations of the test compounds or resting buffer (buffer control) for 15 minutes at room temperature under the dark condition. The cells were automatically added the stimulating solution (HBSS supplemented with MES, final assay buffer pH5.8) by the FDSS 6000.
The monitoring of the changes in the fluorescence signals (λex=340 nm/380 nm, λem=510-520 nm) was initiated at 1 minute prior to the addition of capsaicin solution or acidic buffer and continued for 5 minute.

Sequence of human VR1 (Q8NER1 whole entry): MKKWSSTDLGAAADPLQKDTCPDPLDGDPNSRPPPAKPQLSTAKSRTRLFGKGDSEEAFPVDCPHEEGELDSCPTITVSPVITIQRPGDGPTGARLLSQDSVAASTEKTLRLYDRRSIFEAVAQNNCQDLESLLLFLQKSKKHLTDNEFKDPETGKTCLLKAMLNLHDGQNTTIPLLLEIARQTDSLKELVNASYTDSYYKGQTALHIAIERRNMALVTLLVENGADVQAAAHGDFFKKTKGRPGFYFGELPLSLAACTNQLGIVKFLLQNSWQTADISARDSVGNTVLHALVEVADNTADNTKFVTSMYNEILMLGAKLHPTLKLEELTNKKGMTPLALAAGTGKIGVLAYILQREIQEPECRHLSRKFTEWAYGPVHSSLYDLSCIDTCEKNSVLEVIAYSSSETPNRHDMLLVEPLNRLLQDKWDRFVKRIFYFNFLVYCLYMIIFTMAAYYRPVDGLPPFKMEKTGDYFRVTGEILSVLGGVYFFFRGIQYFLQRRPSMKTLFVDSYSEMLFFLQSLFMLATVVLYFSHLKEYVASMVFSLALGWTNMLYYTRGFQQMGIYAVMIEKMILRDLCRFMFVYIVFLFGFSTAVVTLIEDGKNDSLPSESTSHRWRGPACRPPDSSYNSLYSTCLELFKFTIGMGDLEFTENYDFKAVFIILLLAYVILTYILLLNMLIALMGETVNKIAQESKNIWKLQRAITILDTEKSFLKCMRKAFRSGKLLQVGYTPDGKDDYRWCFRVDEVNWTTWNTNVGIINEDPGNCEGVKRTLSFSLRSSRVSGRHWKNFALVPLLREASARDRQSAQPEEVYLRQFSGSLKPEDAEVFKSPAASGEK

Structure (SMILES)	IC50
Oc1cc2c(cc1O)CN(C(=S)NCCc1ccc(Cl)cc1)CCC2 [Capsazepine, reference compound]	0.237 to 0.455 µM
COc1cc(Cl)c([C@@H](C)NC(=O)c2ccc3cc(C(C)(C)C)ccc3c2)cc1C [Example A1, 6-tert-Butyl-N-[(1R)-1-(2-chloro-4-methoxy-5-methylphenyl)ethyl]-2-naphthamide]	0.0935 µM
Cc1cc([C@@H](C)NC(=O)c2cnc3cc(C(F)(F)F)ccc3c2)c(Cl)cc1O [Example C2, N-[(1R)-1-(2-Chloro-4-hydroxy-5-methylphenyl)ethyl]-7-(trifluoromethyl)quinoline-3-carboxamide]	0.667 µM
COc1cc(Cl)c([C@@H](C)NC(=O)c2ccc3nc(C(C)(C)C)ccc3c2)cc1C [Example D4, 2-tert-Butyl-N-[(1R)-1-(2-chloro-4-methoxy-5-methylphenyl)ethyl]quinoline-6-carboxamide]	0.27 µM
Cc1cc([C@H](C)NC(=O)c2ccc3nc(C(C)(C)C)ccc3c2)c(Cl)cc1O [Example D7, 2-tert-Butyl-N-[(1S)-1-(2-chloro-4-hydroxy-5-methylphenyl)ethyl]quinoline-6-carboxamide]	0.0319 µM
COc1cc([C@@H](C)NC(=O)c2ccc3nc(C(C)(C)C)ccc3c2)c(Cl)cc1O [Example D1, 2-tert-Butyl-[(1R)-1-(2-chloro-4-hydroxy-5-methoxyphenyl)ethyl]quinoline-6-carboxamide]	0.0741 µM
C[C@@H](NC(=O)c1ccc2nc(C(C)(C)C)ccc2c1)c1ccc(CO)cc1 [Example D8, 2-tert-Butyl-N-{(1R)-1-[4-(hydroxymethyl)phenyl]ethyl}quinoline-6-carboxamide]	0.434 µM
Cc1cc([C@@H](C)NC(=O)c2ccc3nc(C(C)(C)C)ccc3c2)c(Cl)cc1O [Example D5, 2-tert-butyl-N-[(1R)-1-(2-chloro-4-hydroxy-5-methylphenyl)ethyl]5 quinoline-6-carboxamide]	0.331 µM
COc1cc(CNC(=O)c2ccc3nc(C(C)(C)C)ccc3c2)c(Cl)cc1O [Example D2, 2-tert-Butyl-N-(2-chloro-4-hydroxy-5-methoxybenzyl)quinoline-6-carboxamide]	0.176 µM
COc1cc(CNC(=O)c2ccc3cc(C(C)(C)C)ccc3n2)c(Cl)cc1O [Example B1]	0.59 µM
COc1cc(CNC(=O)c2ccc3nc(C(C)(C)C)ccc3c2)c(Br)cc1O [Example D3, N-(2-Bromo-4-hydroxy-5-methoxybenzyl)-2-tert-butylquinoline-6-carboxamide]	0.403 µM
Cc1cc([C@@H](C)NC(=O)c2ccc3cc(C(C)(C)C)ccc3c2)c(Cl)cc1O [Example A2, 6-tert-Butyl-N-[(1R)-1-(2-chloro-4-hydroxy-5-methylphenyl)ethyl]-2-naphthamide]	0.0342 µM

Next, values leading:

IC50	Structure (SMILES)
0.0318 µM	Cc1cc([C@@H](C)NC(=O)c2ccc3nc(C(C)(C)C(F)(F)F)ccc3c2)c(Cl)cc1O [Example D13, N-[(1R)-1-(2-Chloro-4-hydroxy-5-methylphenyl)ethyl]-2-(2,2,2-trifluoro-1,1-dimethylethyl)quinoline-6-carboxamide]
0.0655 µM	Cc1cc(C(C)NC(=O)c2ccc3nc(C(C)(C)C(F)(F)F)ccc3c2)c(F)cc1CO (stereo not drawn) [Example D14, N-{1-[2-Fluoro-4-(hydroxymethyl)-5-methylphenyl]ethyl}-2-(2,2,2-trifluoro-1,1-dimethylethyl)quinoline-6-carboxamide]
0.254 µM	COc1cc([C@@H](C)NC(=O)c2ccc3nc(C(C)(C)C)ccc3c2)ccc1O [Example D15, 2-tert-Butyl-N-[(1R)-1-(4-hydroxy-3-methoxyphenyl)ethyl]quinoline-6-carboxamide]
0.181 µM	COc1cc(Cl)c([C@@H](C)NC(=O)c2ccc3nc(C(C)(C)C(F)(F)F)ccc3c2)cc1C [Example D12, N-[(1R)-1-(2-Chloro-4-methoxy-5-methylphenyl)ethyl]-2-(2,2,2-trifluoro-1,1-dimethylethyl)quinoline-6-carboxamide]
0.501 µM	Cc1cc(CNC(=O)c2ccc3nc(C(C)(C)C)ccc3c2)c(F)cc1O [Example D11, 2-tert-Butyl-N-(2-fluoro-4-hydroxy-5-methylbenzyl)quinoline-6-carboxamide]
0.311 µM	Cc1cc(CNC(=O)c2ccc3nc(C(C)(C)C)ccc3c2)c(Cl)cc1O [Example D10, 2-tert-Butyl-N-(2-chloro-4-hydroxy-5-methylbenzyl)quinoline-6-carboxamide]
